Values after ≈ are worked out from the molar mass of the structure shown.
Tests used:
[1] = tested on: A549 lung cancer cells; assay: Experiments of inhibiting growth of cancer cells, SRB method, A549; assay type: cell-based; settings: Homo sapiens, 48 h with drug
Procedure: (§1) The cells were placed in 2.5 cm culture dish and cultured at 37° C. in wet air containing 5% CO2. Cell lines grew adhering to wall. The preparation and dilution of samples as well as process for inoculating them to cellular fluid were performed under aseptic condition. The test samples usually were dissolved in DMSO, stored at −70° C. […] GI50 values about inhibiting growth of cancer cells were determined by SRB (sulfonyl rhodamine B) method. Anticancer drug paclitaxel was used as positive control.
(§2) A549: lung cancer cells; DU145: prostate cancer cells; KB: nasopharyngeal cancer cells; KB-VIN: drug-resistant nasopharyngeal cancer cells. GI50 value was the concentration that causes 50% cancer cells growth inhibition, showing anticancer activity.

[2] = tested on: DU145 prostate cancer cells; assay: Experiments of inhibiting growth of cancer cells, SRB method, DU145; assay type: cell-based; settings: Homo sapiens, DU-145, 48 h with drug
Procedure: as §1, §2

Compound | melting point | GI50 [1] | GI50 [2]
COc1ccc2c(c1)CCCN2c1nc(OC)nc2ccccc12 [Compound 3, N^1-[4-(2-methoxy)quinazolinyl]-6-methoxy-1,2,3,4-tetrahydro-quinoline] | 161 to 163 °C | 0.0077 µg/mL (≈ 0.024 µM) | 0.0069 µg/mL (≈ 0.0215 µM)
COc1ccc2c(c1)C(=O)CCN2c1nc(Cl)nc2ccccc12 [Compound 18, N^1-[4-(2-chloro)quinazolinyl]-6-methoxy-2,3-dihydroquinolin-4(1H)-one] | 218 to 220 °C | 0.0091 µg/mL (≈ 0.0268 µM) | 0.0106 µg/mL (≈ 0.0312 µM)
CNC(=O)c1cc(Br)cc(N2CCCc3cc(OC)ccc32)c1 [Compound 28, N^1-[(3-bromo-5-methylaminoacyl)phenyl]-6-methoxy-1,2,3,4-tetrahydroquinoline] | 166 to 167 °C | 0.14 µg/mL (≈ 0.373 µM) | 0.209 µg/mL (≈ 0.557 µM)
COc1ccc2c(c1)NC(=O)CN2c1nc(C)nc2ccccc12 [Compound 19, N^4-[4-(2-methyl)quinazolinyl]-7-methoxy-3,4-dihydroquinoxalin-2(1H)-one] | – | 0.001 µg/mL (≈ 0.00312 µM) | 0.0007 µg/mL (≈ 0.00219 µM)
COc1ccc2c(c1)CCCN2c1cc(Br)cc(C(=O)NC2CC2)c1 [Compound 29, N^1-[3-bromo-5-(N-cyclopropylaminoacyl)phenyl]-6-methoxy-1,2,3,4-tetrahydroquinoline] | – | 0.067 µg/mL (≈ 0.167 µM) | 0.062 µg/mL (≈ 0.154 µM)
COc1cc2c(cc1F)N(c1nc(C)nc3ccccc13)CCO2 [Compound 14, N^4-[4-(2-methyl)quinazolinyl]-6-fluoro-7-methoxy-3,4-dihydro-2H-benzo[b][1,4]oxazine] | 192 to 194 °C | 4.71 µg/mL (≈ 14.5 µM) | 7.77 µg/mL (≈ 23.9 µM)
COc1ccc2c(c1)CCCN2c1cc(C)nc2ccccc12 [Compound 20, 6-methoxy-2′-methyl-3,4-dihydro-2H-1,4′-biquinoline] | – | 0.0138 µg/mL (≈ 0.0453 µM) | 0.0115 µg/mL (≈ 0.0378 µM)
COc1ccc2c(c1)CCCN2c1nc(NC2CCCC2)nc2ccccc12 [Compound 34, 2-cyclopentylamino-4-(6-methoxy-1,2,3,4-tetrahydro-1-quinolyl) quinazoline] | – | 0.501 µg/mL (≈ 1.34 µM) | 0.483 µg/mL (≈ 1.29 µM)
COc1ccc2c(c1)CCCN2c1cc(Br)cc(C(=O)O)c1 [Compound 27, N^1-[(3-bromo-5-carboxyl)phenyl]-6-methoxy-1,2,3,4-tetrahydro-quinoline] | 175 to 177 °C | – | –
COc1ccc2c(c1)CCCN2c1nc(C)nc2ccccc12 [Compound 2, N^1-[4-(2-methyl)quinazolinyl]-6-methoxy-1,2,3,4-tetrahydroquinoline] | – | 0.0056 µg/mL (≈ 0.0183 µM) | 0.0046 µg/mL (≈ 0.0151 µM)
COc1ccc2c(c1)CCCN2c1nc(NCCCO)nc2ccccc12 [Compound 35, 2-(3-hydroxylpropylamino)-4-(6-methoxy-1,2,3,4-tetrahydro-1-quinolyl)quinazoline] | – | 0.0058 µg/mL (≈ 0.0159 µM) | 0.0073 µg/mL (≈ 0.02 µM)
Cc1ccc2c(c1)CCCN2c1nc(C)nc2ccccc12 [Compound 6, N^1-[4-(2-methyl)quinazolinyl]-6-methyl-1,2,3,4-tetrahydroquinoline] | 136 to 138 °C | 0.061 µg/mL (≈ 0.211 µM) | 0.051 µg/mL (≈ 0.176 µM)
Cc1nc(N2CCCc3cc(Br)ccc32)c2ccccc2n1 [Compound 7, N^1-[4-(2-methyl)quinazolinyl]-6-bromo-1,2,3,4-tetrahydroquinoline] | 129 to 130 °C | 0.075 µg/mL (≈ 0.212 µM) | 0.06 µg/mL (≈ 0.169 µM)
CNc1nc(N2CCCc3cc(OC)ccc32)c2ccccc2n1 [Compound 4, N^1-[4-(2-methylamino)quinazolinyl]-6-methoxy-1,2,3,4-tetrahydro-quinoline] | – | 0.0088 µg/mL (≈ 0.0275 µM) | 0.0075 µg/mL (≈ 0.0234 µM)
COc1ccc2c(c1)OCCN2c1nc(Cl)nc2ccccc12 [Compound 13, N^4-[4-(2-chloro)quinazolinyl]-7-methoxy-3,4-dihydro-2H-benzo[b][1,4]oxazine] | 173 to 174 °C | 0.065 µg/mL (≈ 0.198 µM) | 0.055 µg/mL (≈ 0.168 µM)
COc1ccc2c(c1)CCCN2c1cc(Cl)nc(N)n1 [Compound 30, N^1-[4-(2-amino-6-chloro)pyrimidinyl]-6-methoxy-1,2,3,4-tetrahydro-quinoline] | 179 to 181 °C | 0.077 µg/mL (≈ 0.265 µM) | 0.06 µg/mL (≈ 0.206 µM)
COc1ccc2c(c1)CCCN(c1nc(C)nc3ccccc13)C2 [Compound 9, N^2-[4-(2-methyl)quinazolinyl]-7-methoxy-2,3,4,5-tetrahydro-1H-benzo[c]azepine] | 125 to 127 °C | 5.34 µg/mL (≈ 16.7 µM) | 4.76 µg/mL (≈ 14.9 µM)
COc1ccc2c(c1)CCCN2c1nc(Cl)nc2ccccc12 [Compound 1, N^1-[4-(2-chloro)quinazolinyl]-6-methoxy-1,2,3,4-tetrahydroquinoline] | – | 0.0006 µg/mL (≈ 0.00184 µM) | 0.0005 µg/mL (≈ 0.00153 µM)
COc1ccc2c(c1)CCN2c1nc(C)nc2ccccc12 [Compound 8, 2-Methyl-4-[N^1-(5-methoxy)indolinyl]quinazoline] | 116 to 117 °C | 0.0679 µg/mL (≈ 0.233 µM) | 0.059 µg/mL (≈ 0.203 µM)
CCOC1CCN(c2nc(Cl)nc3ccccc23)c2ccc(OC)cc21 (stereo not shown) [Compound 12, N^1-[4-(2-chloro)quinazolinyl]-4-ethoxy-6-methoxy-1,2,3,4-tetrahydroquinoline] | 70 to 72 °C | 0.065 µg/mL (≈ 0.176 µM) | 0.06 µg/mL (≈ 0.162 µM)
COc1ccc2c(c1)N(C)C(=O)CN2c1nc(C)nc2ccccc12 [Compound 31, N^1-methyl-N^4-[4-(2-methyl)quinazolinyl]-7-methoxy-3,4-dihydro-quinoxalin-2(1H)-one] | – | 0.0063 µg/mL (≈ 0.0188 µM) | 0.0072 µg/mL (≈ 0.0215 µM)
CC(=O)O[C@H]1C(=O)[C@@]2(C)[C@H]([C@H](OC(=O)c3ccccc3)[C@]3(O)C[C@H](OC(=O)[C@H](O)[C@@H](NC(=O)c4ccccc4)c4ccccc4)C(C)=C1C3(C)C)[C@]1(OC(C)=O)CO[C@@H]1C[C@@H]2O [Paclitaxel, paclitaxel, reference compound] | – | 0.0065 µg/mL (≈ 0.00761 µM) | 0.0053 µg/mL (≈ 0.00621 µM)
COc1ccc2c(c1)CCCN2c1nc(NC2CC2)nc2ccccc12 [Compound 33, 2-cyclopropylamino-4-(6-methoxy-1,2,3,4-tetrahydro-1-quinolyl) quinazoline] | – | 0.0057 µg/mL (≈ 0.0165 µM) | 0.0045 µg/mL (≈ 0.013 µM)
COc1ccc2c(c1)CCCN2c1nc(N(C)C)nc2ccccc12 [Compound 32, 2-(N-methylmethylamino)-4-(6-methoxy-1,2,3,4-tetrahydro-1-quinolyl)quinazoline] | – | 0.056 µg/mL (≈ 0.167 µM) | 0.051 µg/mL (≈ 0.153 µM)
COc1ccc2c(c1)CCCN2c1cccc2ccccc12 [Compound 37, 4-(6-methoxy-1,2,3,4-tetrahydro-1-quinolyl)naphthalene] | – | 5.15 µg/mL (≈ 17.8 µM) | 4.27 µg/mL (≈ 14.8 µM)
COc1ccc2c(c1)CCCCN2c1nc(Cl)nc2ccccc12 [Compound 10, N^1-[4-(2-chloro)quinazolinyl]-7-methoxy-2,3,4,5-tetrahydro-1H-benzo[b]-azepine] | 102 to 103 °C | 0.065 µg/mL (≈ 0.191 µM) | 0.056 µg/mL (≈ 0.165 µM)
COC(=O)c1cc(Br)cc(N2CCCc3cc(OC)ccc32)c1 [Compound 26, N^1-[(3-bromo-5-methoxycarbonyl)phenyl]-6-methoxy-1,2,3,4-tetrahydroquinoline] | – | 0.421 µg/mL (≈ 1.12 µM) | 0.483 µg/mL (≈ 1.28 µM)
COc1ccc2c(c1)C(O)CCN2c1nc(C)nc2ccccc12 (stereo not shown) [Compound 11, N^1-[4-(2-methyl)quinazolinyl]-4-hydroxyl-6-methoxy-1,2,3,4-tetrahydroquinoline] | – | 0.006 µg/mL (≈ 0.0187 µM) | 0.006 µg/mL (≈ 0.0187 µM)
